{
  "source": "patent US20040087561A1",
  "about": "“Treatment of sexual dysfunction” (priority 2000, published 2004)",
  "key": {"conscious male rat": {"tested_on": "conscious male rat", "assay": "Penile intracavernosal pressure in the conscious male rat (telemetry)", "assay_type": "in vivo", "method": "In addition to treating women with FSD, bombesin antagonists will be useful in treating male erectile dysfunction (MED. Both the non-selective BB1/2 antagonists (Compound 1; 10 mg/kg sc) and the selective BB I receptor antagonist (Compound 3; 15 mg/kg sc) is pro-erectile in a conscious rat model of penile erection (FIGS. 24 and 25). Erectile responses were recorded by measuring intracavemosal pressure using surgically implanted telemetric device. The specific details the surgical procedures, data acquisition and analysis can be found in detail in Bernabe 1999.\nCompound 1 and compound 3 were dissolved in 50% O-cyclodextrin in saline. They were administered at a dose of 15 mg/kg subcutaneously (sc). […] These increases equate to penile erection. Both Compounds 1 and 3 induced a number of erections in a similar manner to those observed with apomorphine or melanotan-II—both of which are clinically proven agents that are effective in the treatment of MED. Moreover the amplitude of the increases observed were similar to those observed with apomorphine or melanotan-II. The mechanism of action is thought to be similar to the effects on female genital flow ie CNS potentiation of the descending neuronal pathways that control penile erection."}, "[1]": {"tested_on": "ovariectomised female Sprague Dawley rats", "assay": "Inhibition of female rat sexual proceptivity by NMB and its antagonism", "assay_type": "in vivo", "conditions": "pre-treatment 15 mg/kg i.p. 1 h before NMB 100 ng i.c.v.; progesterone-treated rats; blockade not total", "method": "Ovariectomised female rats (Sprague Dawley, obtained from Charles River, UK) were stereotaxically implanted (coordinates 0.89 mm behind Bregma, 1.3 mm lateral and 2.5 mm vertical) with stainless steel cannulae (6 mm long, O.D. 0.75 mm), held in place with dental cement. Animals were housed in groups of three and returned to a reversed lighting system of 12 h light:dark (lights off 5.00-17.00 h). Correct placement of the cannulae was assessed post-mortem. Rats were used for tests two weeks after ovariectomy (one week after cannulation). The experiments started at least 5 h into the dark period. Forty eight hours before tests, the animals were primed with 5 μg oestradiol benzoate (OB) (s.c, in corn oil) and adapted to the apparatus (in the absence of stimuli animals) for 10 min on 2 consecutive days prior testing. The 10 min test was carried out as previously described. The difference in the percentage of time spent investigating male minus female was calculated, out of the total time spent investigating stimuli.\nProgesterone (Prog, 0.5 mg/0.1 ml) was dissolved in corn oil and administered subcutaneously (s.c.), 4 h before test, to induce proceptive behaviour. Compound (1) (15 mg/kg, i.p.) was dissolved in 50% 2-hydroxypropyl-β-cyclodextrin in saline and administered 1 h before the i.c.v. administration. Neuromedin B was obtained from Bachem, UK. It was dissolved in isotonic saline and administered i.c.v. over a 30 sec period, with the aid of a pump set to deliver a flow of 10 μl/min, 10 min before tests. The dosing volume was 5 μl/rat. Each rat received a total amount of 100 ng.\nFrom the present study we can conclude that stimulation of BB1 receptors with an agonist results in inhibition of proceptive behaviour. This inhibitory effect may be prevented by the presence of an antagonist. e.g. Compound (1) In FIG. 5 the bars represent percentage of time spent investigating male, minus the percentage of time spent investigating the female stimuli+SEM, (n=8-12 per group). ***P<0.001 vs progesterone (One-way ANOVA followed by Dunnett's test)."}, "[2]": {"tested_on": "ovariectomised female Sprague Dawley rats", "assay": "Plasma sexual hormone levels (radioimmunoassay) in ovariectomised female rats", "assay_type": "in vivo, rat", "method": "Ovariectomised adult female Sprague Dawley rats (180-200 g) were housed in groups of 6 in a reversed lighting system of 12 h light:dark (lights off 7.00-19.00 h). They were used for the experiments at least two weeks after ovariectomy. Forty eight hours before tests, the animals were primed with oestradiol benzoate (5 μg/0.1 ml in corn oil, s.c.). Progesterone (0.5 mg/0.1 ml, in corn oil, s.c.) was administered 4 h before blood collection, as a positive control. Compound (1) (3-10 mg/kg, i.p.) was administered in 50% 2-hydroxypropyl-β-cyclodextrin, 1 h prior to blood collection. Blood was collected from the trunk, after decapitation. It was immediately centrifuged (3500 r.p.m., 4° C., 5 min) and the plasmas frozen until assayed for hormonal content, using commercially available radioimmunoassay kits (^125I-labelled hormones) for oestradiol, progesterone, LH, FSH and prolactin."}, "[3]": {"tested_on": "ovariectomised female Sprague Dawley rats", "assay": "Female rat sexual receptivity (lordosis quotient)", "assay_type": "in vivo", "conditions": "Example 2; quinelorane 6.25 μg/kg s.c., 90 min; Compound (1) 10 mg/kg i.p., 1 h", "method": "Ovariectomised adult female Sprague Dawley rats (180-200 g, from Charles River) were housed in groups of 6 in a reversed lighting system of 12 h light:dark (lights off 7.00-19.00 h). Two weeks after ovariectomy they were used for sexual activity tests. The experiments started at least 5 h into the dark period.\nCompound (1) was dissolved in 100% β-cyclodextrin and then diluted with saline to a final solution of 50% 2-hydroxypropyl-β-cyclodextrin. It was administered intraperitoneally (i.p.) at a dose of 10 mg/kg, in a dosing volume of 1 ml/kg. Quinelorane (6.25 μg/kg) was dissolved in water and administered s.c. as positive control. Forty eight hours before testing, ovariectomised female rats (as described above), were primed with 5 μg oestradiol benzoate dissolved in corn oil and injected subcutaneously. […] The females were placed with a series of vigorous male rats and subjected to 10 mounts.\nThe lordotic response of the animal was recorded and expressed as a percentage of the mounts (i.e. lordosis quotient, LQ), as previously described. Animals showing LQ<20 were considered non-receptive and were included in the study. Each rat was tested prior to administration of the compound and then tested similarly post-injection. The pre-treatment times were 1 h for Compound (1) and vehicle (50% β-cyclodextrin, i.p.) or 90 min for quinelorane.\nThe above compound was dissolved in PEG200 vehicle and administered orally. Quinelorane dihydrochloride (LY 163,502, 6.25 μg/kg) was dissolved in water and administered subcutaneously (s.c.), as a positive control. Both compounds were administered in a 1 ml/kg volume.\nForty eight hours before tests, the animals were primed with 5 μg oestradiol benzoate (Sigma Chemical. Co. Ltd., UK) dissolved in corn oil and injected subcutaneously. The females were placed with a series of vigorous male rats and subjected to 10 mounts. The lordotic response of the animal was recorded and expressed as a percentage of the mounts (i.e. lordosis quotient, LQ). […] Animals showing higher LQ were not included in the study. Each rat was tested prior to administration of the compound and then tested similarly at 1 h and 90 min post-injection of the above compound or quinelorane respectively."}, "[4]": {"conditions": "Compound (1) 3-10 mg/kg 1 h, progesterone 0.5 mg/0.1 ml s.c. 4 h before blood collection, vs vehicle"}, "[5]": {"conditions": "Compound (1) 3-10 mg/kg, 1 h before blood collection"}},
  "data": [
    {"smiles": "COc1ccc(C2(CNC(=O)[C@](C)(Cc3c[nH]c4ccccc34)NC(=O)Nc3ccc([N+](=O)[O-])cc3)CCCCC2)nc1", "note": "[Compound (1), (S) 3-(1H-Indol-3-yl)-N-[1-(5-methoxy-pyridin-2-yl)-cyclohexyl-methyl]-2-methyl-2-[3-(4-nitro-phenyl)-ureido]-propionamide]", "values": [
      {"measurement": "penile erection (erectile response)", "setting": "conscious male rat; Compound 1 10 mg/kg sc, Compound 3 15 mg/kg sc, conscious rat model", "result": "pro-erectile"},
      {"measurement": "intracavernosal pressure", "setting": "conscious male rat; one hour after 10 mg/kg sc Compound 1, 45 minutes after 15 mg/kg sc compound 3, conscious rat", "result": "significant increases in intracavernosal pressure"},
      {"measurement": "antagonism of the inhibitory effect of NMB on proceptivity", "setting": "[1]", "result": "prevented the inhibitory effect of NMB"},
      {"measurement": "LH plasma levels", "setting": "[2]; [4]", "result": "no effect"},
      {"measurement": "progesterone plasma levels", "setting": "[2]; [4]", "result": "no effect"},
      {"measurement": "FSH plasma levels", "setting": "[2]; [5]", "result": "no effect"},
      {"measurement": "oestradiol plasma levels", "setting": "[2]; [5]", "result": "no effect"},
      {"measurement": "prolactin plasma levels", "setting": "[2]; [5]", "result": "no effect"},
      {"measurement": "lordosis quotient (LQ) compared to LQ before administration", "setting": "[3]", "result": "significant (P<0.05) stimulatory effect on the LQ"}
    ]}
  ]
}
